Holding throughout (format): in vivo
Series [1] relates to Corn Earworm (CEW) (Helicoverpa zea). As to the kind of experiment: Bioassay on Corn Earworm (CEW), 128-well diet tray assay. To be noted: Helicoverpa zea, 168 h, second instar larvae, five to seven days; for mortality at 50 µg/cm2: 50 μg/cm2 on artificial diet, read-out: Rating CEW (% Control (or Mortality)); for mortality at 0.5 µg/cm2: 0.5 μg/cm2 on artificial diet, read-out: Rating CEW (% Control (or Mortality)), *Tested at 0.5 μg/cm2. Summed up:
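Helicoverpa zea larvae in 128-well diet trays, held at 25 °C, 14:10 light-dark for five to seven days. Percent mortality scored per well and averaged over eight wells.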

Series [2] deals with Green Peach Aphid (GPA) (Myzus persicae). The series is described as follows: Bioassay on Green Peach Aphid (GPA), foliar spray on cabbage seedlings. The conditions noted are these: Myzus persicae, 72 h; 200 ppm foliar spray on cabbage seedlings, graded after three days, Abbott corrected % control; read-out: Rating GPA (% Control (or Mortality)). On the procedure: Certain molecules disclosed in this document were tested against GPA using procedures described in the following example. In the reporting of the results, the “GPA Rating Table” was used (See Table Section).
Cabbage seedlings grown in 3-inch pots, with 2-3 small (3-5 cm) true leaves, were used as test substrate. The seedlings were infested with 20-50 GPA (wingless adult and nymph stages) one day prior to chemical application. Four pots with individual seedlings were used for each treatment. Test compounds (2 mg) were dissolved in 2 mL of acetone/MeOH (1:1) solvent, forming stock solutions of 1000 ppm test compound. The stock solutions were diluted 5× with 0.025% Tween 20 in H2O to obtain the solution at 200 ppm test compound. A hand-held aspirator-type sprayer was used for spraying a solution to both sides of […] leaves until runoff. Reference plants (solvent check) were sprayed with the diluent only containing 20% by volume of acetone/MeOH (1:1) solvent. Treated plants were held in a holding room for three days at approximately 25° C. and ambient relative humidity (RH) prior to grading. Evaluation was conducted by counting the number of live aphids per plant under a microscope. Percent Control was measured by using Abbott's correction formula (W.S. Abbott, “A Method of Computing the Effectiveness of an Insecticide” J. Econ. Entomol. 18 (1925), pp. 265-267) as follows.
Corrected % Control=100*(X−Y)/X • where • X=No. of live aphids on solvent check plants and • Y=No. of live aphids on treated plants

Series [3] concerns Beet Armyworm (BAW) (Spodoptera exigua). The series is described as follows: Bioassay on Beet Armyworm (BAW), 128-well diet tray assay. To be noted: Spodoptera exigua, 168 h; 50 μg/cm2 on artificial diet, second instar larvae, five to seven days; read-out: Rating BAW (% Control (or Mortality)). Summed up: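 Spodoptera exigua larvae on diet trays held 5–7 days at 25 °C, 14:10 light-dark. Percent mortality scored per well and averaged over eight wells.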

In series [4] the test system is Yellow Fever Mosquito (YFM) (Aedes aegypti). To be noted: about 1 day-old larvae, scored on mortality after 3 days. On the procedure: Certain molecules disclosed in this document were tested against YFM using procedures described in the following paragraph. In the reporting of the results, the “YFM Rating Table” was used (See Table Section).
Master plates containing 400 μg of a molecule dissolved in 100 μL of dimethyl sulfoxide (DMSO) (equivalent to a 4000 ppm solution) are used. A master plate of assembled molecules contains 15 μL per well. To this plate, 135 μL of a 90:10 water:acetone mixture is added to each well. A robot (Biomek® NXP Laboratory Automation Workstation) is programmed to dispense 15 μL aspirations from the master plate into an empty 96-well shallow plate (“daughter” plate). There are 6 reps (“daughter” plates) created per master. The created daughter plates are then immediately infested with YFM larvae.
The day before plates are to be treated, mosquito eggs are placed in Millipore water containing liver powder to begin hatching (4 g. into 400 ml). After the daughter plates are created using the robot, they are infested with 220 μL of the liver powder/larval mosquito mixture (about 1 day-old larvae). After plates are infested with mosquito larvae, a non-evaporative lid is used to cover the plate to reduce drying. Plates are held at room temperature for 3 days prior to grading. After 3 days, each well is observed and scored based on mortality.

`CCc1ccccc1N/C(S)=N/C(=O)Nc1ccc(-c2ncn(-c3ccc(OC(F)(F)F)cc3)n2)cc1` [Molecule A46]: the mortality at 50 µg/cm2 in series [1] and in series [3] was 50 to 100% throughout. Besides, the mortality at 200 ppm in series [2] is 0 to 80%. Moreover, the “Rating YFM (% Control (or Mortality))” value in series [4] was “A (80-100)”.
For `COc1ccc(N/C(O)=C/C(=O)Nc2ccc(-c3ncn(-c4ccc(OC(F)(F)F)cc4)n3)cc2)c(C(C)C)c1` [Molecule A34, (Z)-3-hydroxy-3-(2-isopropyl-4-methoxyphenylamino)-N-(4-(1-(4-(trifluoromethoxy)phenyl)-1H-1,2,4-triazol-3-yl)phenyl)acrylamide], the mortality at 50 µg/cm2 in series [1] and in series [3] was 50 to 100% each time. Also, in series [2], the mortality at 200 ppm is 0%. Moreover, the “Rating YFM (% Control (or Mortality))” value in series [4] was “A (80-100)”.
Regarding `CCc1ccccc1N1C(=O)CS/C1=N\C(=O)Nc1ccc(-c2ncn(-c3ccc(OC(F)(F)F)cc3)n2)cc1` [Molecule A35], the mortality at 50 µg/cm2 in series [1] and in series [3] was 50 to 100% in each case. Moreover, the mortality at 200 ppm in series [2] came out at 0%. The “Rating YFM (% Control (or Mortality))” value in series [4] is recorded as “A (80-100)”.
For `COc1ccc(N2C(=O)CS/C2=N\C(=O)Nc2ccc(-c3ncn(-c4ccc(OC(F)(F)F)cc4)n3)cc2)c(C)c1` [Molecule A110], in series [1], the mortality at 0.5 µg/cm2 was in the range of 50 to 100%. The mortality at 200 ppm in series [2] was determined as 0%. For the same molecule, in series [3], the mortality at 50 µg/cm2 was 50 to 100%. Moreover, the “Rating YFM (% Control (or Mortality))” value in series [4] is on record as “A (80-100)”.
Regarding `Cc1cccc(C)c1N1C(=O)CS/C1=N\C(=O)Nc1ccc(-c2ncn(-c3ccc(OC(F)(F)F)cc3)n2)cc1` [Molecule A14, (Z)-1-(3-(2,6-dimethylphenyl)-4-oxothiazolidin-2-ylidene)-3-(4-(1-(4-(trifluoromethoxy)phenyl)-1H-1,2,4-triazol-3-yl)phenyl)urea], the mortality at 50 µg/cm2 in series [1] and in series [3] was 50 to 100% each time. Besides, the mortality at 200 ppm in series [2] fell in the range of 0 to 80%. In addition, the “Rating YFM (% Control (or Mortality))” value in series [4] is “A (80-100)”.
Regarding `Cc1cccc(C)c1N1C(=O)C(C)(C)S/C1=N\C(=O)Nc1ccc(-c2ncn(-c3ccc(OC(F)(F)F)cc3)n2)cc1` [Molecule A126], the mortality at 50 µg/cm2 in series [1] and in series [3] was 50 to 100% in each case. For the same molecule, in series [2], the mortality at 200 ppm was determined as 0%. Moreover, in series [4], the “Rating YFM (% Control (or Mortality))” value is given as “A (80-100)”.
As to `COc1cc(C)c(-n2c(C)cs/c2=N\C(=O)Nc2ccc(-c3ncn(-c4ccc(OC(F)(F)F)cc4)n3)cc2)c(C)c1` [Molecule A44], the mortality at 50 µg/cm2 in series [1] and in series [3] was 50 to 100% in each case. Besides, in series [2], the mortality at 200 ppm was in the range of 0 to 80%. Moreover, the “Rating YFM (% Control (or Mortality))” value in series [4] was “A (80-100)”.
On to `Cc1cccc(C)c1N/C(=N/C(=O)Nc1ccc(-c2ncn(-c3ccc(C(F)(F)F)cc3)n2)cc1)SCOC(=O)C(C)C` [Molecule A3, (E)-(N′-(2,6-Dimethylphenyl)-N-(4-(1-(4-(trifluoromethyl)phenyl)-1H-1,2,4-triazol-3-yl)phenylcarbamoyl)carbamimidoylthio) methyl isobutyrate], for which the mortality at 50 µg/cm2 in series [1] and in series [3] was 50 to 100% throughout. Besides, in series [2], the mortality at 200 ppm was found to be 0%. The “Rating YFM (% Control (or Mortality))” value in series [4] was “A (80-100)”.
On to `Cc1cccc(C)c1N/C(=N/C(=O)Nc1ccc(-c2ncn(-c3ccc(OC(F)(F)F)cc3)n2)cc1)SCOC(=O)C(C)C` [Molecule A4, (E)-(N′-(2,6-Dimethylphenyl)-N-(4-(1-(4-(trifluoromethyoxy)phenyl)-1H-1,2,4-triazol-3-yl)phenylcarbamoyl)carbamimidoylthio)methyl isobutyrate], for which the mortality at 50 µg/cm2 in series [1] and in series [3] was 50 to 100% each time. Further, in series [2], the mortality at 200 ppm is 0 to 80%. In series [4], the “Rating YFM (% Control (or Mortality))” value is reported as “A (80-100)”.
For the molecule `Cc1cc(-c2ncn(-c3ccc(OC(F)(F)F)cc3)n2)ccc1NC(=O)/N=C1\SCC(=O)N1c1ccccc1C(C)C` [Molecule A123, (Z)-1-(3-(2-isopropylphenyl)-4-oxothiazolidin-2-ylidene)-3-(2-methyl-4-(1-(4-(trifluoromethoxy)phenyl)-1H-1,2,4-triazol-3-yl)phenyl)urea], the mortality at 0.5 µg/cm2 in series [1] lay within 50 to 100%. The mortality at 50 µg/cm2 in series [3] fell in the range of 50 to 100%. The “Rating YFM (% Control (or Mortality))” value in series [4] was “A (80-100)”.
On to `COc1ccc(N/C(=N\C(=O)Nc2ccc(-c3ncn(-c4ccc(OC(F)(F)F)cc4)n3)cc2)SCOC(=O)C(C)C)cc1` [Molecule A62], for which the mortality at 50 µg/cm2 in series [1] and in series [3] was 50 to 100% throughout. Further, the mortality at 200 ppm in series [2] was 0%. The “Rating YFM (% Control (or Mortality))” value in series [4] is reported as “A (80-100)”.
For `Cc1ccccc1N1C(=O)CS/C1=N\C(=O)Nc1ccc(-c2ncn(-c3ccc(OC(F)(F)F)cc3)n2)cc1` [Molecule A65], the mortality at 0.5 µg/cm2 in series [1] lay in the range of 50 to 100%. In addition, the mortality at 50 µg/cm2 in series [3] lay in the range of 50 to 100%. In addition, the “Rating YFM (% Control (or Mortality))” value in series [4] is recorded as “A (80-100)”.

(Values after patent publication US20150196033A1, “PESTICIDAL COMPOSITIONS AND PROCESSES RELATED THERETO” (priority 2012, published 2015).)
